According to patent EP2754453A1, “Conjugate of a cationic antimicrobial peptide and of a fatty acid for use as an anti-cancer agent” (UNIVERSITY COLLEGE DUBLIN, priority 2013, dated 2014):
Read-outs that look alike come from different tables or passages of the source.

Columns and labels:
Human glioma (SNB-19) = test: MTT cell viability assay (anti-proliferation activity); type: cell-based; details: SNB-19, 48 h incubation; read-out: concentration at which 50% cell growth inhibition occurs (IC50)
Method: (§1) The colorectal cancer (HT-29), lung carcinoma (A549) and T-cell leukemia (Jurkat) cell lines were maintained as monolayer cultures in RPMI-1640 supplemented with 100 µg/ml streptomycin, 100 U/ml penicillin and 10% (v/v) foetal bovine serum (FBS) (all from Sigma, Ireland). Human glioma (SNB-19), human pancreatic carcinoma (MiaPaCa) and breast carcinoma (MDA-MB-231) cells were obtained from the American Type Culture Collection (ATCC) and maintained in Dulbecco's Modified Eagle's Medium (DMEM) supplemented with 100 µg/ml streptomycin, 100 U/ml penicillin, 2 mM L-glutamine, and 10% (v/v) FBS. The melanoma cell line (WM793) was originally isolated from a superficial spreading melanoma and maintained in DMEM, supplemented with 10% (v/v) FBS, 50 µg/ml gentamicin and 4 µg/ml insulin (Sigma, Ireland). HeLa cells were obtained from the ATCC and maintained in DMEM supplemented with 100 µg/ml streptomycin, 100 U/ml penicillin, 2 mM L-glutamine, 0.1 mM non-essential amino acids (NEAA, Sigma), and 10% (v/v) FBS. Human umbilical vein endothelial cells (HUVEC) cells were obtained from Cambrex and maintained in an endothelial cell growth medium (Lonza, Dublin Ireland). Human Dermal fibroblast (HDF) cells were obtained from the European Collection of Cell Culture (ECACC) and were maintained in DMEM supplemented with 100 µg/ml streptomycin, 100 U/ml penicillin, 2 mM L-glutamine, and 10% (v/v) FBS. All cells were grown in humidified atmosphere of 95% air and 5% CO2 at 37°C.
(§2) Reduction of MTT [(3-(4,5-dimethylthiazol-2-yl)-2,5-diphenyltetrazolium bromide] by cells was assessed colorimetrically as previously described. Assays were carried out after 48 h of cell incubation (72 h for combinational studies) in the media containing test compounds at concentrations ranging from 200 µM to 0.2 µM depending upon compounds being tested.

[1] = tested on: human pancreatic carcinoma (MiaPaCa); test: as above; type: cell-based; details: 48 h incubation, read-out: concentration at which 50% cell growth inhibition occurs (IC50)
Method: as §1, §2

HeLa cells = test: as above; type: cell-based, human
Method: as §1, §2

T-cell leukemia (Jurkat) = test: as above; type: cell-based, human; details: 48 h incubation, read-out: concentration at which 50% cell growth inhibition occurs (IC50)
Method: as §1, §2

Jurkat = details: cited from earlier work
MDA-MB-231 = details: cited from earlier work
[2] = tested on: Human umbilical vein endothelial cells (HUVEC); test: MTT cell viability assay (anti-proliferation activity); type: cell-based; details: 48 h incubation, read-out: concentration at which 50% cell growth inhibition occurs (IC50)
Method: as §1, §2

[3] = tested on: breast carcinoma (MDA-MB-231) cells; test: as above; type: cell-based, human; details: 48 h incubation, read-out: concentration at which 50% cell growth inhibition occurs (IC50)
Method: as §1, §2

[4] = tested on: colorectal cancer (HT-29); test: as above; type: cell-based, human; details: HT-29, 48 h incubation; read-out: concentration at which 50% cell growth inhibition occurs (IC50)
Method: as §1, §2

[5] = tested on: melanoma cell line (WM793); test: as above; type: cell-based, human; details: WM793, 48 h incubation; read-out: concentration at which 50% cell growth inhibition occurs (IC50)
Method: as §1, §2

MiaPaCa = test: Western blot analysis of apoptosis markers; type: cell-based, human; details: Fig. 5B
Method: (§3) Cells were lyzed and protein levels determined using the bicinchoninic acid method (Pierce, Rockford, IL). Protein samples were separated by SDS-PAGE under reducing conditions. Resolved proteins were transferred to methanol-activated polyvinylidenedifluoride (PVDF) membrane (Millipore, Bedford, MA, USA and blocked in 5% (w/v) bovine serum albumin for 1 h at room temperature. Primary antibody was applied to membranes overnight at 4°C (anti-cleaved Caspase 3, 8, 9 and poly ADP-ribose polymerase (PARP), (1:1000 dilution; Cell Signaling Technology, Danvers, USA). Chemiluminescent signal was detected using the Fluorchem FC2 Imaging System (Alpha Innotech, Switzerland). Membranes were stripped and reprobed with anti-β-actin antibodies (1:1000 dilution; Santa-Cruz Biotechnology, Santa Cruz, USA) so as to provide loading control.

HeLa = test: Western blot analysis of apoptosis markers; type: cell-based, human; details: Fig. 5A
Method: as §3

[6] = tested on: Human Dermal fibroblast (HDF) cells; test: MTT cell viability assay (anti-proliferation activity); type: cell-based; details: 48 h incubation, read-out: concentration at which 50% cell growth inhibition occurs (IC50)
Method: as §1, §2

lung carcinoma (A549) = test: as above; type: cell-based, human; details: A549, 48 h incubation; read-out: concentration at which 50% cell growth inhibition occurs (IC50)
Method: as §1, §2

[7] = HeLa, 48 h incubation, read-out: concentration at which 50% cell growth inhibition occurs (IC50)

| Substance | IC50 (Human glioma (SNB-19)) | IC50 [1] | IC50 (HeLa cells; [7]) | IC50 (T-cell leukemia (Jurkat)) | cytotoxic activity (Jurkat) | cytotoxic activity (MDA-MB-231) | IC50 [2] | IC50 [3] | IC50 [4] | IC50 [5] | Caspase 8 (MiaPaCa) | apoptotic cell death (activation of caspase 3, 9 and the caspase substrate PARP) (MiaPaCa) | Caspase 8 (HeLa) | apoptotic cell death (activation of caspase 3, 9 and the caspase substrate PARP) (HeLa) | IC50 [6] | IC50 (lung carcinoma (A549)) | IC50 (HeLa cells; HeLa cells, concentration used in uptake study of biotinylated peptides (Fig. 3A), read-out: approximately the IC50 value) |
| --- | --- | --- | --- | --- | --- | --- | --- | --- | --- | --- | --- | --- | --- | --- | --- | --- | --- |
| C10-kwklfkklpkflhlakkf [C10DP18L] | 4.3 ± 0.9 µM | 5 ± 1.5 µM | 3 ± 0.1 µM | 3.8 ± 0.4 µM | – | – | – | – | – | – | – | – | – | – | – | – | – |
| KWKLFKKIPKFLHLAKKF [P18] | – | – | – | – | displays cytotoxic activity | displays cytotoxic activity | – | – | – | – | – | – | – | – | – | – | – |
| Kwklfkkipkflhlakkf (SEQ ID NO: 2) [DP18] | 18.6 ± 1.5 µM | 18.9 ± 1.5 µM | 18 ± 0.4 µM | – | – | – | 100 ± 9 µM | 18.6 ± 0.8 µM | 17.5 ± 0.5 µM | 22.8 ± 0.8 µM | – | – | – | – | – | – | – |
| Kwklfkklpkflhlakkf (SEQ ID NO: 1) [DP18L] | 27.3 ± 1.8 µM | 13.9 ± 0.6 µM | 12.7 ± 1.2 µM | 4.2 ± 0.6 µM | – | – | 140 ± 18 µM | 13.4 ± 2.4 µM | 18.3 ± 0.9 µM | 18.7 ± 3 µM | not detected at significant levels | induces apoptotic cell death | not detected at significant levels | induces apoptotic cell death | – | – | – |
| R10-kwklfkklpkflhlakkf [R10DP18L] | – | – | 2.8 ± 0.3 µM | 3 ± 0.5 µM | – | – | 9.2 ± 0.8 µM | 3.1 ± 0.8 µM | – | – | – | – | – | – | 7.9 ± 0.4 µM | 2.5 ± 0.7 µM | ~2.4 µM |
